Results published in patent US12171755B2, “PAPD5 inhibitors and methods of use thereof” (Children's Medical Center Corporation, priority 2017, dated 2024).

Target: T1, PAPD5 (Homo sapiens, UniProt Q8NDF8)
T1 construct: made in house
Experiment: High-throughput luminescence (KinaseGlo) RNA polyadenylation assay, ATP utilization by recombinant PAPD5
Format: biochemical
Details: Table 4 (entries of Table 5), ratio of luminescence with inhibitor to DMSO; for Fold-change determined at compound concentration 33 μM: 33 μM compound; for Fold-change determined at compound concentration 100 μM: 100 μM compound, higher = higher inhibition
In short: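 Values are ratios of inhibitor to DMSO luminescence, so larger numbers mean less ATP consumed. Screening was run in duplicate with a 2 h room-temperature reaction of recombinant PAPD5, ATP and oligo RNA substrate plus compound. Residual ATP was detected after a 10 min KinaseGlo step.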

T1 sequence (Q8NDF8 68-698 isoform Q8NDF8-5): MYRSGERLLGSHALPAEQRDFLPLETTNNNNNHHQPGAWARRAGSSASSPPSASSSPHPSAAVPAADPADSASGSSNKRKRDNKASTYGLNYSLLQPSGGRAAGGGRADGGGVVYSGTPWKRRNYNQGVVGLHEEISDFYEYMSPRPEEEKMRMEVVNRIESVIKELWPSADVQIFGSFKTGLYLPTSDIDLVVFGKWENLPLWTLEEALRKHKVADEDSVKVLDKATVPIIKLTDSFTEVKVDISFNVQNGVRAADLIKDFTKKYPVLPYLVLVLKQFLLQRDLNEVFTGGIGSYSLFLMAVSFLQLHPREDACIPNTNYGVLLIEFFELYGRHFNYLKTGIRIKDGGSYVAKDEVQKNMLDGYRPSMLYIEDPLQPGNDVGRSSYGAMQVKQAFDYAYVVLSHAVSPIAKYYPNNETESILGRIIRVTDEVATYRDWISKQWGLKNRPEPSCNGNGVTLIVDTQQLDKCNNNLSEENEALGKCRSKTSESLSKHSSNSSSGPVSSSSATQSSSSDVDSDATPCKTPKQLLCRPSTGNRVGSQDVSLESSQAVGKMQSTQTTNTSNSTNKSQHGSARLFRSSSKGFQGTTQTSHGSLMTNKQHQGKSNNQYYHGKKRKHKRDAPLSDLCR

Row | Fold-change determined at compound concentration 33 μM | Fold-change determined at compound concentration 100 μM | Compound
1 | 1.128 | 1.321 | COCc1c(Br)c(C)nc2sc3c(=O)[nH]nnc3c12 [Entry 166, 8-bromo-9-(methoxymethyl)-7-methylpyrido[3′,2′:4,5]thieno[3,2-d][1,2,3]triazin-4(3H)-one]
2 | 1.171 | 1.403 | O=C(CSc1nc(=O)c2ccccc2[nH]1)NCc1nc2ccccc2[nH]1 [Entry 97, N-(1H-benzimidazol-2-ylmethyl)-2-[(4-oxo-1H-quinazolin-2-yl)sulfanyl]acetamide]
3 | 1.164 | 1.361 | O=C(NC1CC1)c1ccc(Cn2c(SCc3ccccc3Cl)nc3ccncc32)cc1 [Entry 202, 4-({2-[(2-chlorobenzyl)thio]-3H-imidazo[4,5-c]pyridin-3-yl]methyl)-N-cyclopropylbenzamide]
4 | 1.086 | 1.339 | CC(C)Cn1c(=O)c(-c2ccc(C(=O)Nc3ccc4c(c3)OCCO4)cc2)nc2ccccc21 [Entry 219, N-(2,3-dihydro-1,4-benzodioxin-6-yl)-4-[4-(2-methylpropyl)-3-oxoquinoxalin-2-yl]benzamide]
5 | 1.077 | 1.259 | O=c1c2c([nH]c3nc(CNc4ccccc4F)nn13)CCC2 [Entry 153, 2-{[(2-fluorophenyl)amino]methyl}-4,5,6,7-tetrahydro-8H-cyclopenta[d][1,2,4]triazolo[1,5-a]pyrimidin-8-one]
6 | 1.372 | 1.87 | CC(C)CCn1c(=O)c2ccccc2n2c(=S)[nH]nc12 [Entry 74, 1-mercapto-4-(3-methylbutyl)[1,2,4]triazolo[4,3-a]quinazolin-5(4H)-one]
7 | 1.152 | 1.346 | COc1ccc(-c2n[nH]c3nc(-c4cc(OC)c(OC)c(OC)c4)cc(C(=O)O)c23)cc1 [Entry 183, 3-(4-methoxyphenyl)-6-(3,4,5-trimethoxyphenyl)-1H-pyrazolo[3,4-b]pyridine-4-carboxylic acid]
8 | 1.119 | 1.238 | Cc1ccc(Cn2c(SCc3ccc(C(=O)O)cc3)nc3cccnc32)cc1 [Entry 238, 4-[[3-[(4-methylphenyl)methyl]imidazo[4,5-b]pyridin-2-yl]sulfanylmethyl]benzoic acid]
9 | 1.099 | 1.256 | CCCn1c(=O)c2cc(F)ccc2n2c(=S)[nH]nc12 [Entry 72, 7-fluoro-4-propyl-1-thioxo-2,4-dihydro[1,2,4]triazolo[4,3-a]quinazolin-5(1H)-one]
10 | 1.125 | 1.314 | CN1CCCc2cc(C(=O)NC3CCCCC3)sc21 [Entry 239, N~2~cyclohexyl-7-methyl-4,5,6,7-tetrahydrothieno[2,3-b]pyridine-2-carboxamide]
11 | 1.059 | 1.203 | O=S(=O)(NC1=NC2=NC(c3ccccc3)=CC(c3ccc(F)cc3)N2N1)c1ccc(Cl)cc1 (centres unmarked) [Entry 157, 4-chloro-N-[7-(4-fluorophenyl)-5-phenyl-1,7-dihydro-[1,2,4]triazolo[1,5-a]pyrimidin-2-yl]benzenesulfonamide]
12 | 1.114 | 1.245 | CCOc1ccc(-c2noc(Cn3cnc4c(cnn4-c4ccccc4)c3=O)n2)cc1OC [Entry 217, 5-[[3-(4-ethoxy-3-methoxyphenyl)-1,2,4-oxadiazol-5-yl]methyl]-1-phenylpyrazolo[3,4-d]pyrimidin-4-one]
13 | 1.193 | 1.37 | COc1cc2[nH]c3c(SCC(N)=O)ncnc3c2cc1OC [Entry 224, 2-[(7,8-dimethoxy-5H-pyrimido[5,4-b]indol-4-yl)sulfanyl]acetamide]
